AC50 data for 65 compounds are collected here from PubChem BioAssay AID463074 (Broad Institute, 2010).

The source made the active and inactive calls.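 The calls were made as follows: active = AC50 no more than tenfold above the top dose tested, or full inhibition at every dose with a flat fit (cut at about 19 µM in these data); inconclusive = flat curve fit with inhibition between 30% and 70%, or poor fit; inactive = AC50 more than tenfold above the top dose tested.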

The subject of this test is HMLE_sh_eGFP viability, CellTiter-Glo luminescence, 72 h. Nature of the test: viability loss of HMLE_sh_eGFP cells – cell-based, luminescence, counter-screen for HMLE_sh_ECad selective toxicity project, dose response (AID 463074).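 Also: counterscreen control line to flag general toxicity for the HMLE_sh_ECad screen; potency for loss of viability as luminescence drops below DMSO wells.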
`COc1ccc(-c2cc([C@H]3[C@@H]4C=CCC[C@@]4(C)C(=O)N3Cc3ccccc3)ccc2F)cc1`: the AC50 is 6.8 µM.
Take `Cc1ccc(NS(=O)(=O)c2ccc(Cl)c(C(=O)Nc3ccccc3-c3nc4ccccc4[nH]3)c2)cc1C`: the AC50 was 1.48 µM.
To `O=C(Nc1ccc(-c2csc(Nc3cccc(C(F)(F)F)c3)n2)cc1)c1cc([N+](=O)[O-])cc(C(F)(F)F)c1` belongs 1.93 µM; to `O=[N+]([O-])c1ccc(-c2nc(Nc3cccc(O)c3)c3ccccc3n2)cc1`, 3.89 µM; to `O=c1c(Cl)c(NCc2ccccc2)cnn1C12CC3CC(CC(C3)C1)C2`, 3.19 µM.
Regarding `COc1ccc(C(=O)c2ccc3oc(-c4ccc(OC)cc4)c(-c4ccc(O)cc4)c3c2)cc1`, the AC50 is 3.87 µM.
For `O=c1c2c3c(sc2ncn1/N=C/c1ccc([N+](=O)[O-])o1)CCCC3`, the half-maximal activity concentration (AC50) is 6.48 µM.
`N#Cc1c(/N=C/N2CCCC2)oc(-c2ccccc2)c1-c1ccccc1`: the AC50 was 3.02 µM.
Turning to `CCc1cc2ccc(C)cc2nc1SCC(=O)c1ccc(NC(C)=O)cc1`, the AC50 was 9.7 µM.
In the case of `c1ccc(CNc2nc(N3CCN(Cc4ccccc4)CC3)nc3ccccc23)cc1`, the AC50 is 3.91 µM.
Take `COc1ccc(-c2nc(NC(=O)c3cc(C(C)(C)C)nn3C)sc2C)cc1`: the AC50 was 14.2 µM.
Turning to `COc1ccc(/C=C/C(=O)c2c(O)n(CCC3=CCCCC3)c(=O)[nH]c2=O)cc1`, the AC50 is 3.33 µM.
To `Cc1ccc2[nH]c3nc(N/N=C/c4cccc(O)c4)nnc3c2c1` belongs 0.248 µM; to `CC(C)c1ccc(N2C(=O)NC(=O)/C(=C\C=C\c3ccco3)C2=O)cc1`, > 19.5 µM (inactive); to `Cc1ccc(Cl)cc1NC(=O)c1ccccc1OCC(=O)Nc1ccc(Cl)cc1`, 11.5 µM.
On to `COc1ccccc1CNC(=S)Nc1ccc2nc(N3CCN(C)CC3)cc(C)c2c1`, for which the AC50 was 0.427 µM.
As for `CC1S/C(=N/N=C/c2cccc([N+](=O)[O-])c2)NC1=O` (stereo not given), the AC50 was 3.48 µM.
To `CCNS(=O)(=O)c1ccc(NC(=O)Nc2cccc(C(F)(F)F)c2)cc1` belongs 13.5 µM; to `COc1cc(CNCCc2ccccc2)cc(Cl)c1OCc1ccccc1`, 4.84 µM.
Consider `Cc1ccc(-c2csc(NCCn3c(-c4ccncc4)nc4cc(C(F)(F)F)ccc43)n2)cc1`, for which the AC50 was 10.7 µM.
Turning to `C(=C\c1nc(N2CCCCCC2)c2ccccc2n1)/c1ccccc1`, the AC50 was 5.54 µM.
Turning to `CC(=O)OCCCNc1cc(Sc2ccc(Cl)cc2)c2nonc2c1[N+](=O)[O-]`, the AC50 is 4.28 µM.
Consider `COc1ccc([N+](=O)[O-])cc1Nc1c2ccccc2nc2ccccc12`, for which the AC50 is 1.43 µM.
To `Cc1ccc(C(=O)Cn2nnc3c(sc4nc5c(c(-c6ccccc6)c43)CCC5)c2=O)cc1` belongs 0.687 µM; to `O=C1C(C2=NC(c3ccccn3)C3C(=O)N(c4ccc(Cl)cc4Cl)C(=O)C23)=C(O)c2ccccc21` (stereo not given), > 19.5 µM (inactive).
In the case of `C#CCOCCOCCOCCNc1nc(N2CCN(C(=O)CCCCCCCCCCNC(=O)Cn3cc(C[C@@H](C)O)nn3)CC2)nc(N2CCN(C(=O)CCCCCCCCCCNC(=O)[C@H](CCCCN)n3cc(C[C@@H](C)CC)nn3)CC2)n1`, the AC50 was 6.8 µM.
As for `Cc1cc(C(=O)N/N=C/c2cc(Br)cc(Br)c2OC(=O)c2cccc(F)c2)n[nH]1`, the AC50 was 3.3 µM.
The value for `CC(CNC(=S)Nc1cc(F)cc(F)c1)CSc1ccc(Cl)cc1` (stereo not given) was 6.55 µM.
Regarding `COc1cccc2sc3cc(C#CC4(O)CCCCC4)ccc3c(=O)c12`, the AC50 is 3.1 µM.
Regarding `CCc1ccc(N=Nc2ccc(O)c3[nH]cnc23)cc1`, the AC50 is 2.06 µM.
The value for `COc1ccc(-c2ccc(C)cc2)cc1[C@H]1[C@@H]2C=CCC[C@@]2(C)C(=O)N1Cc1ccccc1` was 3.87 µM; that for `O=C(Nc1ccc(Nc2ccccc2)cc1)c1cccc(F)c1` was 17.6 µM; that for `Cc1ccc(-c2cc(-c3ccccc3)nc(NN)n2)cc1` was 4.19 µM.
For `CCN1CCN(CCCOc2ccc(-c3ccccc3)cc2)CC1`, the AC50 is 5.67 µM.
With `CC(C)c1ccccc1OCC(O)CN(CC(O)COc1cccc2ccccc12)C(C)C` (stereo not given), the AC50 is 3.47 µM.
Take `O=C(O)c1cccc(N/N=C(\N=Nc2ccccc2)c2ccccc2)c1`: the AC50 is 4.25 µM.
To `Cc1ccccc1-c1cc(C(=O)Nc2sc(C(=O)OC(C)C)c(C)c2C#N)c2ccccc2n1` belongs 2.66 µM; to `CCCCn1c(=O)c(C(=O)NCc2ccc(Cl)cc2)c(O)c2ccccc21`, 7.8 µM.
Take `OC(CN1CCN(c2ccccn2)CC1)Cn1c2ccc(Cl)cc2c2cc(Cl)ccc21` (stereo not given): the AC50 is 6.78 µM.
On to `O=C(NCc1nc(-c2ccc(C(F)(F)F)cc2)no1)Nc1ccc(OC(F)(F)F)cc1`, for which the AC50 was 3.12 µM.
Turning to `O=C(CN(c1ccc(Cl)cc1)S(=O)(=O)c1ccc(Cl)c([N+](=O)[O-])c1)NCCc1ccc(F)cc1`, the AC50 is 3.81 µM.
Consider `O=C(Nc1cnn(C23CC4CC(CC(C4)C2)C3)c1)c1cc(-c2ccccc2)on1`, for which the AC50 is 11.4 µM.
To `C=C1CCc2c([nH]c3ccc(OCC(C)C)cc23)C1=O` belongs 5.57 µM; to `O=C(NCCCN1CCOCC1)c1ccc(CSc2ccc(Cl)cc2)cc1`, 7.77 µM.
Turning to `Cc1ccc(C)c(S(=O)(=O)N2CCN(c3ncnc4sccc34)CC2)c1`, the AC50 is 3.19 µM.
For `CC(C)c1ccc(NC(=O)C(c2ccccc2)N(C)C(=O)CCc2c[nH]c3ccccc23)cc1` (stereo not given), the half-maximal activity concentration (AC50) was 7.92 µM.
For the compound `CN(C)CCNc1nc2sc3c(c2c(=O)n1CCc1ccccc1)CCCCC3`, the AC50 is 7.1 µM.
To `Clc1ccc(Nc2ncnc3ccc(Br)cc23)cc1` belongs 17.5 µM; to `Cc1ccc(CSc2nc3sc(C)c(C)c3c(=O)n2Cc2ccco2)cc1`, > 19.5 µM (inactive).
As to `CN(C)c1ccc(/C=C2\CCC/C(=C\c3ccccc3)C2=O)cc1`, the AC50 is 5.47 µM.
With `O=C(NC1CONC1=O)OCC(Cl)(Cl)Cl` (stereo not given), the AC50 was > 19.5 µM (inactive).
`N/C(=N\N=C/c1ccc(Br)cc1)N/N=C\c1ccc(Br)cc1`: the AC50 is 3.83 µM.
Turning to `CCCCC1CCC(C(=O)N(CC(C)C)c2c(N)n(Cc3ccccc3)c(=O)[nH]c2=O)CC1` (stereo not given), the AC50 is 4.62 µM.
Regarding `CCN(c1ccc(NC(=O)CCc2nc3sc4c(c3c(=O)[nH]2)CCCC4)cc1)C(C)C`, the AC50 was 9.45 µM.
With `Cn1cccc1/C=C1\SC(=S)N(Nc2ccccc2)C1=O`, the AC50 is 2.31 µM.
`C=CCn1c(SCCC)nc2sc3c(c2c1=O)CCc1ccccc1-3`: the AC50 was 2.26 µM.
Regarding `Cc1cc(N/N=C/c2ccccc2Cl)nc(NCc2ccccc2)n1`, the AC50 is 4.04 µM.
For the compound `Cc1nn(-c2ccc(F)cc2)c(Cl)c1/C=C1\C(=O)Nc2ccccc21`, the AC50 is 2.34 µM.
As for `Cc1ccc(-n2nc(C)c3c(C)c(CCC(=O)Nc4ccc(CN5CCCC5)cc4)c(C)nc32)cc1`, the AC50 was 3.79 µM.
The value for `CC1CCCN(CCCNC(=O)c2cc3c(Cl)nc4ccccc4c3s2)C1` (stereo not given) was 8.14 µM; that for `Cc1ccccc1-c1ccc(CN2CCN(C)C(CCO)C2)cc1` (stereo not given) was 5.43 µM.
The value for `CC1CC/C(=C\c2ccc3c(c2)OCO3)C(=O)/C1=C/c1ccc2c(c1)OCO2` (stereo not given) was 5.09 µM; that for `Cc1ccc(F)c(NC(=O)/C(C#N)=C(\O)c2ccc(C(C)(C)C)cc2)c1` was 8.58 µM.
As to `C[C@@H](CSc1ccc(Br)cc1)CN1CC[C@H](NC(=O)OCc2ccccc2)CCC1=O`, the AC50 was 5.5 µM.
The value for `COc1ccc(C(c2c[nH]c3ccccc23)c2c[nH]c3ccccc23)cc1O` was 4.62 µM.
